Data taken from publication PMC12775434, “Ultra-large virtual screening unveils potent agonists of the neuromodulatory orphan receptor GPR139” (Nature Communications, 2025).
Values joined by “and” are separate entries in the source; they are usually repeats but may differ in a detail not shown here. Equal entries are not always repeated.

Target: T1, GPR139 (Homo sapiens, UniProt Q6DWJ6)
T1 sequence (Q6DWJ6 1-353): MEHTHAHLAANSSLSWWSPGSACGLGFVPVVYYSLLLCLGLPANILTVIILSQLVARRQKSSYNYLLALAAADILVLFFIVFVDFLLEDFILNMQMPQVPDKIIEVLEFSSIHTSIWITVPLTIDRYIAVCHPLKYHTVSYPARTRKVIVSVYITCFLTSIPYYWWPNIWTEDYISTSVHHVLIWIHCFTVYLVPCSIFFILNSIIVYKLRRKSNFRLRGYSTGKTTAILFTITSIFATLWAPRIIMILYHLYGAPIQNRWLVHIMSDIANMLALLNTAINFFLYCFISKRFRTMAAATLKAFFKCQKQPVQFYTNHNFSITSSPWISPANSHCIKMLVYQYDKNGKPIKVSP
Experiment: Ca2+ mobilization assay, agonist mode, stable GPR139-CHOk1 cell line
Type: cell-based
Conditions: for EC50: GPR139-CHOk1, read-out: EC50, Ca2+ mobilization; for Emax: Supplementary Table 2, normalized to Lundbeck Cmp 1a, mean ± SEM, read-out: Emax (%) Ca2+
In short: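 Agonist activity of compounds is assessed in stably transfected CHO-K1 cells using the calcium dye Fluo-4 at 37 °C in HEPES-buffered HBSS (pH 7.4). Efficacy is expressed relative to the reference agonist Lundbeck Cmp 1a, set as 100%.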

[1] = Agonist mode, individual replicates (Supplementary Figure 4)
[2] = log [Compound] M -4.5, replicate experiments
[3] = log [Compound] M -5.0, replicate experiments
[4] = log [Compound] M -5.5, replicate experiments
[5] = log [Compound] M -6.0, replicate experiments
[6] = log [Compound] M -6.5, replicate experiments
[7] = log [Compound] M -7.0, replicate experiments
[8] = log [Compound] M -7.5, replicate experiments
[9] = log [Compound] M -8.0, replicate experiments
[10] = log [Compound] M -8.5, replicate experiments
[11] = log [Compound] M -9.0, replicate experiments
[12] = log [Compound] M = -4.5, individual replicate columns
[13] = log [Compound] M = -5.0, individual replicate columns
[14] = log [Compound] M = -5.5, individual replicate columns
[15] = log [Compound] M = -6.0, individual replicate columns
[16] = log [Compound] M = -6.5, individual replicate columns
[17] = log [Compound] M = -7.0, individual replicate columns
[18] = log [Compound] M = -7.5, individual replicate columns
[19] = log [Compound] M = -8.0, individual replicate columns
[20] = log [Compound] M = -8.5, individual replicate columns
[21] = log [Compound] M = -9.0, individual replicate columns
[22] = 0.1 µM, individual replicates (Supplementary Figure 3)
[23] = 1 µM, individual replicates (Supplementary Figure 3)
[24] = 10 µM, individual replicates (Supplementary Figure 3)
[25] = Agonist mode, individual replicates (Supplementary Figure 1)
[26] = primary screen, 10 µM compound, agonist mode, three columns = independent experiments

Structure (SMILES)	Ca2+ signal (% of Cmp 1a) [1]	EC50 [nM]	Emax [%]	Ca2+ signal (% of Cmp 1a) [2]	Ca2+ signal (% of Cmp 1a) [3]	Ca2+ signal (% of Cmp 1a) [4]	Ca2+ signal (% of Cmp 1a) [5]	Ca2+ signal (% of Cmp 1a) [6]	Ca2+ signal (% of Cmp 1a) [7]	Ca2+ signal (% of Cmp 1a) [8]	Ca2+ signal (% of Cmp 1a) [9]	Ca2+ signal (% of Cmp 1a) [10]	Ca2+ signal (% of Cmp 1a) [11]	Ca2+ signal (% of Cmp 1a) [12]	Ca2+ signal (% of Cmp 1a) [13]	Ca2+ signal (% of Cmp 1a) [14]	Ca2+ signal (% of Cmp 1a) [15]	Ca2+ signal (% of Cmp 1a) [16]	Ca2+ signal (% of Cmp 1a) [17]	Ca2+ signal (% of Cmp 1a) [18]	other results
Cc1cscc1-c1nc(CC(=O)NC(C)c2ccccc2)no1 (centres unmarked) [Compound 1.1, CC(C1=CC=CC=C1)NC(CC2=NOC(C3=CSC=C3C)=N2)=O]	96 % of Cmp 1a and 101 % of Cmp 1a and 83 % of Cmp 1a	50	125 ± 12	130 % of Cmp 1a and 133 % of Cmp 1a and 104 % of Cmp 1a and 91 % of Cmp 1a	136 % of Cmp 1a and 130 % of Cmp 1a and 133 % of Cmp 1a and 83 % of Cmp 1a	124 % of Cmp 1a and 109 % of Cmp 1a and 177 % of Cmp 1a and 86 % of Cmp 1a	113 % of Cmp 1a and 116 % of Cmp 1a and 167 % of Cmp 1a and 85 % of Cmp 1a	103 % of Cmp 1a and 101 % of Cmp 1a and 147 % of Cmp 1a and 66 % of Cmp 1a	80 % of Cmp 1a and 83 % of Cmp 1a and 116 % of Cmp 1a and 48 % of Cmp 1a	60 % of Cmp 1a and 56 % of Cmp 1a and 80 % of Cmp 1a and 40 % of Cmp 1a	36 % of Cmp 1a and 26 % of Cmp 1a and 21 % of Cmp 1a and 24 % of Cmp 1a	21 % of Cmp 1a and 9 % of Cmp 1a and -4 % of Cmp 1a and 18 % of Cmp 1a	19 % of Cmp 1a and 13 % of Cmp 1a and -16 % of Cmp 1a and 5.33 % of Cmp 1a	130 % of Cmp 1a and 133 % of Cmp 1a and 104 % of Cmp 1a and 91 % of Cmp 1a	136 % of Cmp 1a and 130 % of Cmp 1a and 133 % of Cmp 1a and 83 % of Cmp 1a	124 % of Cmp 1a and 109 % of Cmp 1a and 177 % of Cmp 1a and 86 % of Cmp 1a	113 % of Cmp 1a and 116 % of Cmp 1a and 167 % of Cmp 1a and 85 % of Cmp 1a	103 % of Cmp 1a and 101 % of Cmp 1a and 147 % of Cmp 1a and 66 % of Cmp 1a	80 % of Cmp 1a and 83 % of Cmp 1a and 116 % of Cmp 1a and 48 % of Cmp 1a	60 % of Cmp 1a and 56 % of Cmp 1a and 80 % of Cmp 1a and 40 % of Cmp 1a	fold improved potency compared to compound 1 (Ca2+ mobilization EC50): 3 fold; Ca2+ signal (% of Cmp 1a) [19]: 36 % of Cmp 1a and 26 % of Cmp 1a and 21 % of Cmp 1a and 24 % of Cmp 1a; Ca2+ signal (% of Cmp 1a) [20]: 21 % of Cmp 1a and 9 % of Cmp 1a and -4 % of Cmp 1a and 18 % of Cmp 1a; Ca2+ signal (% of Cmp 1a) [21]: 19 % of Cmp 1a and 13 % of Cmp 1a and -16 % of Cmp 1a and 5.33 % of Cmp 1a
Cc1nocc1-c1nc(CC(=O)NC(C)c2ccccc2)no1 (centres unmarked) [Compound 1.5, CC(C1=CC=CC=C1)NC(CC2=NOC(C3=CON=C3C)=N2)=O]	113 % of Cmp 1a and 100 % of Cmp 1a and 116 % of Cmp 1a	130	103 ± 6											80 % of Cmp 1a and 113 % of Cmp 1a and 109 % of Cmp 1a and 101 % of Cmp 1a	104 % of Cmp 1a and 119 % of Cmp 1a and 100 % of Cmp 1a and 95 % of Cmp 1a	91 % of Cmp 1a and 108 % of Cmp 1a and 100 % of Cmp 1a and 85 % of Cmp 1a	78 % of Cmp 1a and 79 % of Cmp 1a and 91 % of Cmp 1a and 81 % of Cmp 1a	55 % of Cmp 1a and 74 % of Cmp 1a and 73 % of Cmp 1a and 76 % of Cmp 1a	36 % of Cmp 1a and 45 % of Cmp 1a and 52 % of Cmp 1a and 57 % of Cmp 1a	14 % of Cmp 1a and 3.67 % of Cmp 1a and 9 % of Cmp 1a and 12 % of Cmp 1a	Ca2+ signal (% of Cmp 1a) [19]: 17 % of Cmp 1a and 2 % of Cmp 1a and 47 % of Cmp 1a and -11 % of Cmp 1a; Ca2+ signal (% of Cmp 1a) [20]: 10 % of Cmp 1a and -6.33 % of Cmp 1a and 1 % of Cmp 1a and -17 % of Cmp 1a; Ca2+ signal (% of Cmp 1a) [21]: -2.67 % of Cmp 1a and 0.333 % of Cmp 1a and -5 % of Cmp 1a and -15 % of Cmp 1a
CC(NC(=O)Cn1cncc(-c2ccccc2)c1=O)c1ccccc1 (centres unmarked) [Compound 5, C[C@@H](NC(=O)CN1C=NC=C(C=2C=CC=CC2)C1=O)C=3C=CC=CC3]		3600	88 ± 4	91 % of Cmp 1a and 74 % of Cmp 1a and 86 % of Cmp 1a	75 % of Cmp 1a and 51 % of Cmp 1a and 76 % of Cmp 1a	60 % of Cmp 1a and 41 % of Cmp 1a and 50 % of Cmp 1a	23 % of Cmp 1a (2×) and 24 % of Cmp 1a	16 % of Cmp 1a (2×) and 0.619 % of Cmp 1a	11 % of Cmp 1a	9 % of Cmp 1a and 2.21 % of Cmp 1a and 7 % of Cmp 1a	3.64 % of Cmp 1a and 0.518 % of Cmp 1a and 5.27 % of Cmp 1a	13 % of Cmp 1a and 0.00547 % of Cmp 1a and 8 % of Cmp 1a	7 % of Cmp 1a and -1.29 % of Cmp 1a and 10 % of Cmp 1a								Ca2+ signal (% of Cmp 1a) [22]: 0.9 % of Cmp 1a and -12.1 % of Cmp 1a; Ca2+ signal (% of Cmp 1a) [23]: 17.5 % of Cmp 1a and 11.9 % of Cmp 1a; Ca2+ signal (% of Cmp 1a) [24]: 52.6 % of Cmp 1a and 31.9 % of Cmp 1a; Ca2+ signal (% of Cmp 1a) [25]: 71 % of Cmp 1a and 78 % of Cmp 1a and 63 % of Cmp 1a; Ca2+ signal (% of Cmp 1a) [26]: 71 % of Cmp 1a and 78 % of Cmp 1a and 63 % of Cmp 1a
Cc1cc(-c2nc(CC(=O)NC(C)c3ccccc3)no2)sc1C (centres unmarked) [Compound 1, CC(NC(=O)CC1=NOC(=N1)C2=CC(C)=C(C)S2)C=3C=CC=CC3]		160	94 ± 3	84 % of Cmp 1a and 91 % of Cmp 1a and 93 % of Cmp 1a	91 % of Cmp 1a and 83 % of Cmp 1a and 90 % of Cmp 1a	79 % of Cmp 1a	79 % of Cmp 1a and 67 % of Cmp 1a and 70 % of Cmp 1a	57 % of Cmp 1a and 52 % of Cmp 1a and 53 % of Cmp 1a	45 % of Cmp 1a and 26 % of Cmp 1a and 43 % of Cmp 1a	27 % of Cmp 1a and 24 % of Cmp 1a and 16 % of Cmp 1a	10 % of Cmp 1a and 2 % of Cmp 1a and 7.42 % of Cmp 1a	1.62 % of Cmp 1a and 6 % of Cmp 1a and 3.64 % of Cmp 1a	6 % of Cmp 1a and -1.9 % of Cmp 1a and 3.54 % of Cmp 1a								Ca2+ signal (% of Cmp 1a) [22]: 36.2 % of Cmp 1a and 58.0 % of Cmp 1a; Ca2+ signal (% of Cmp 1a) [23]: 74.5 % of Cmp 1a and 72.2 % of Cmp 1a; Ca2+ signal (% of Cmp 1a) [24]: 88.7 % of Cmp 1a and 74.0 % of Cmp 1a; Ca2+ signal (% of Cmp 1a) [25]: 94 % of Cmp 1a (2×) and 99 % of Cmp 1a; Ca2+ signal (% of Cmp 1a) [26]: 94 % of Cmp 1a and 99 % of Cmp 1a
